Results as given in ChEMBL document CHEMBL6127100, “Plant based steroidal and triterpenoid sapogenins: Chemistry on diosgenin and biological aspects” (Eur J Med Chem, 2024).

Experiments:
MCF7 [1] = assay: Cytotoxicity against human MCF7 cells assessed as reduction in cell viability incubated for 24 hrs by MTT assay; type: functional, cell-based; conditions: MCF7, 24 h
HeLa [2] = assay: Cytotoxicity against human HeLa cells assessed as reduction in cell viability incubated for 24 hrs by MTT assay; type: functional, cell-based
HepG2 [3] = assay: Antiproliferative activity against human HepG2 cells assessed as reduction in cell viability incubated for 48 hrs by MTT assay; type: functional, cell-based; conditions: HepG2, 48 h
RAW264.7 [4] = assay: Anti-inflammatory activity in mouse RAW264.7 cells assessed as inhibition of LPS-induced TNFalpha production preincubated for 1 hr followed by LPS addition and measured after 24 hrs by ELISA; type: functional; parameters: scale not given: the % may be the effect or the level left; conditions: time 25 hrs
MCF7 [5] = assay: Cytotoxicity against human MCF7 cells; type: functional, cell-based
FaDu [6] = assay: Cytotoxicity against human FaDu cells assessed as reduction in cell growth incubated for 48 hrs by SRB assay; type: functional, cell-based
DU-145 [7] = assay: Cytotoxicity against human DU-145 cells assessed as reduction in cell growth incubated for 48 hrs by SRB assay; type: functional, cell-based; conditions: DU-145, 48 h
DU-145 [8] = assay: Antiproliferative activity against human DU-145 cells; type: functional, cell-based
RAW264.7 [9] = assay: Antiinflammatory activity in LPS-induced mouse RAW264.7 cells assessed as inhibition of IL-6 production pretreated for 1 hr followed by LPS stimulation and measured after 3 hrs by ELISA; type: functional; parameters: scale not given: the % may be the effect or the level left; conditions: time 4 hrs
DLD-1 [10] = assay: Cytotoxicity against human DLD-1 cells assessed as reduction in cell growth incubated for 48 hrs by SRB assay; type: functional, cell-based; conditions: DLD-1, 48 h
MCF7 [11] = assay: Cytotoxicity against human MCF7 cells assessed as reduction in cell growth incubated for 48 hrs by SRB assay; type: functional, cell-based; conditions: MCF7, 48 h
DLD-1 [12] = assay: Cytotoxicity against human DLD-1 cells; type: functional, cell-based
A549 [13] = assay: Cytotoxicity against human A549 cells; type: functional, cell-based
FaDu [14] = assay: Antiproliferative activity against human FaDu cells; type: functional, cell-based
A549 [15] = assay: Cytotoxicity against human A549 cells assessed as reduction in cell growth incubated for 48 hrs by SRB assay; type: functional, cell-based; conditions: A549, 48 h
HepG2 [16] = assay: Antiproliferative activity against human HepG2 cells assessed as reduction in cell growth; type: functional, cell-based
DU-145 [17] = assay: Cytotoxicity against human DU-145 cells; type: functional, cell-based
MDA-MB-231 [18] = assay: Cytotoxicity against human MDA-MB-231 cells; type: functional, cell-based
CCRF-CEM = assay: Cytotoxicity against human CCRF-CEM cells; type: functional, cell-based
U-937 [19] = assay: Cytotoxicity against human U-937 cells; type: functional, cell-based
BT-474 = assay: Cytotoxicity against human BT-474 cells; type: functional, cell-based
U-937 [20] = assay: Antiproliferative activity against human U-937 cells assessed as inhibition of cell growth incubated for 72 hrs by cell-titer glo assay; type: functional, cell-based; conditions: U-937, 72 h
HeLa [21] = assay: Growth inhibition of human HeLa cells; type: functional
SW1573 = assay: Antiproliferative activity against human SW1573 cells assessed as inhibition of cell growth incubated for 48 hrs by tryphan blue dye based assay; type: functional; conditions: SW1573, 48 h
HeLa [22] = assay: Antiproliferative activity against human HeLa cells assessed as inhibition of cell growth incubated for 48 hrs by tryphan blue dye based assay; type: functional
A549 [23] = assay: Antiproliferative activity against human A549 cells assessed as inhibition of cell growth incubated for 48 hrs by tryphan blue dye based assay; type: functional; conditions: A549, 48 h
HBL = assay: Antiproliferative activity against human HBL cells assessed as inhibition of cell growth incubated for 48 hrs by tryphan blue dye based assay; type: functional
WiDr = assay: Antiproliferative activity against human WiDr cells assessed as inhibition of cell growth incubated for 48 hrs by tryphan blue dye based assay; type: functional
T47D = assay: Antiproliferative activity against human T47D cells assessed as inhibition of cell growth incubated for 48 hrs by tryphan blue dye based assay; type: functional
T98G = assay: Antiproliferative activity against human T98G cells assessed as inhibition of cell growth incubated for 72 hrs by celltiter-glo assay; type: functional, cell-based
HeLa [24] = assay: Antiproliferative activity against human HeLa cells assessed as reduction in cell growth; type: functional, cell-based
HeLa [25] = assay: Antiproliferative activity against human HeLa cells assessed as reduction in cell growth by MTT assay; type: functional, cell-based
PC-9 = assay: Anticancer activity against human PC-9 cells assessed as inhibition of cell growth incubated for 48 hrs by MTT assay; type: functional, cell-based; conditions: PC-9, 48 h
A549 [26] = assay: Anticancer activity against human A549 cells assessed as inhibition of cell growth incubated for 48 hrs by MTT assay; type: functional, cell-based; conditions: A549, 48 h
RAW264.7 [27] = assay: Anti-inflammatory activity in LPS-induced mouse RAW264.7 cells assessed as inhibition of IL-6 production at by ELISA; type: functional; parameters: scale not given: the % may be the effect or the level left
RAW264.7 [28] = assay: Anti-inflammatory activity in LPS-induced mouse RAW264.7 cells assessed as reduction in TNF-alpha production at by ELISA; type: functional; parameters: scale not given: the % may be the effect or the level left
MDA-MB-231 [29] = assay: Cytotoxicity against human MDA-MB-231 cells assessed as reduction in cell viability incubated for 24 hrs by MTT assay; type: functional, cell-based; conditions: MDA-MB-231, 24 h
Jurkat = assay: Cytotoxicity against human Jurkat cells assessed as reduction in cell viability incubated for 24 hrs by MTT assay; type: functional, cell-based

CC(=O)O[C@H]1CC[C@@]2(C)C(=CC[C@H]3[C@@H]4C[C@@H]5O[C@H](CC[C@@H](C)CO)[C@@H](C)[C@@H]5[C@@]4(C)CC[C@@H]32)C1
IC50 (MCF7 [1]): 11 µM | IC50 (HeLa [2]): 11.4 µM

C[C@@H]1CC[C@@]2(OC1)O[C@H]1C[C@H]3[C@@H]4CC=C5C[C@@H](OC(=O)[C@@H](N)CCCNC(=N)N)CC[C@]5(C)[C@H]4CC[C@]3(C)[C@H]1[C@@H]2C
IC50 (HepG2 [3]): 19 µM

C[C@H]1CO[C@@]2(O[C@H]3C[C@H]4[C@@H]5/C(=N/CCCCCCC(=O)O)C=C6C[C@@H](O)CC[C@]6(C)[C@H]5CC[C@]4(C)[C@H]3[C@@H]2C)/C(=N/O)C1
Activity (RAW264.7 [4]): 41.72% | IC50 (MCF7 [5]): 15.8 µM | IC50 (FaDu [6]): 16.6 µM | IC50 (DU-145 [7]): 16.6 µM | IC50 (DU-145 [8]): 12.8 µM | Activity (RAW264.7 [9]): 19.73% | IC50 (DLD-1 [10]): 16 µM | IC50 (MCF7 [11]): 15.6 µM | IC50 (DLD-1 [12]): 14.6 µM | IC50 (A549 [13]): 15.8 µM | IC50 (FaDu [14]): 15.2 µM | IC50 (A549 [15]): 17.1 µM

C[C@@H]1CC[C@@]2(OC1)O[C@H]1C[C@H]3[C@@H]4CC=C5C[C@@H](OC6=C(Cl)C(=O)c7ccccc7C6=O)CC[C@]5(C)[C@H]4CC[C@]3(C)[C@H]1[C@@H]2C
IC50 (HepG2 [16]): 17.5 µM

C[C@@H]1CC[C@@]2(OC1)O[C@H]1C[C@H]3[C@@H]4CC(n5cc(-c6ccccc6)nn5)C5(O)C[C@@H](O)CC[C@]5(C)[C@H]4CC[C@]3(C)[C@H]1[C@@H]2C (stereo partly specified)
IC50 (DU-145 [17]): 7.9 µM | IC50 (MDA-MB-231 [18]): 3.32 µM | IC50 (CCRF-CEM): 3.9 µM | IC50 (U-937 [19]): 7.9 µM | IC50 (BT-474): 13.2 µM | IC50 (U-937 [20]): 8.22 µM

CC(=O)O[C@@H]1C=C2/C(=N/O)C[C@H]3[C@@H]4C[C@@H]5OC(=O)[C@@H](C)[C@@H]5[C@@]4(C)CC[C@@H]3[C@@]2(C)CC1
GI50 (HeLa [21]): 17 µM | IC50 (DU-145 [17]): 7.81 µM | IC50 (BT-474): 14.1 µM

CC(CCC[C@H](C)[C@H]1[C@@H](O)C[C@H]2[C@@H]3CC=C4C[C@@H](O)CC[C@]4(C)[C@H]3CC[C@]12C)C[Se]C#N (stereo partly specified)
IC50 (SW1573): 2.2 µM | IC50 (HeLa [22]): 3.3 µM | IC50 (A549 [23]): 1.7 µM | IC50 (HBL): 2.2 µM | IC50 (WiDr): 5.5 µM | IC50 (T47D): 3.2 µM

COc1ccc(-c2cn(C3C[C@H]4[C@@H]5C[C@@H]6O[C@]7(CC[C@@H](C)CO7)[C@@H](C)[C@@H]6[C@@]5(C)CC[C@@H]4[C@@]4(C)CC[C@H](O)CC34O)nn2)cc1 (stereo partly specified)
IC50 (DU-145 [17]): 19.8 µM | IC50 (MDA-MB-231 [18]): 5.78 µM | IC50 (BT-474): 4.3 µM | IC50 (T98G): 11.4 µM | IC50 (U-937 [20]): 5.41 µM

Cc1ccc2c(n1)C(=O)C(Cl)C(O[C@H]1CC[C@@]3(C)C(=CC[C@H]4[C@@H]5C[C@@H]6O[C@]7(CC[C@@H](C)CO7)[C@@H](C)[C@@H]6[C@@]5(C)CC[C@@H]43)C1)C2=O (stereo partly specified)
IC50 (HeLa [24]): 16 µM

CC(=O)OC[C@H](C)CCC(=O)[C@@H](C)[C@H]1[C@@H](OC(C)=O)C[C@H]2[C@@H]3CC=C4C[C@H](N=[N+]=[N-])CC[C@]4(C)[C@H]3CC[C@]12C
IC50 (HeLa [25]): 11.8 µM

C[C@H]1CO[C@@]2(O[C@H]3C[C@H]4[C@@H]5/C(=N/CCCCC(=O)O)C=C6C[C@@H](O)CC[C@]6(C)[C@H]5CC[C@]4(C)[C@H]3[C@@H]2C)/C(=N/O)C1
Activity (RAW264.7 [4]): 47.7% | Activity (RAW264.7 [9]): 23.3%

C[C@@H]1CC[C@@]2(OC1)O[C@H]1C[C@H]3[C@@H]4CCC5(OC#N)C[C@@H](O)CC[C@]5(C)[C@H]4CC[C@]3(C)[C@H]1[C@@H]2C (stereo partly specified)
IC50 (PC-9): 8.7 µM | IC50 (A549 [26]): 5.1 µM

CC(=O)O[C@H]1CC[C@@]2(C)C(=CC[C@H]3[C@@H]4C[C@@H]5O[C@H](CC[C@@H](C)COC(=O)N6CCN(C)CC6)[C@@H](C)[C@@H]5[C@@]4(C)CC[C@@H]32)C1
Activity (RAW264.7 [27]): 49% | Activity (RAW264.7 [28]): 33.66% | IC50 (MDA-MB-231 [29]): 13.5 µM | IC50 (Jurkat): 15.8 µM
